One experiment deals with T1, Caspase-1 (Homo sapiens, UniProt P29466).
T1 sequence (P29466 120-297 limits assumed): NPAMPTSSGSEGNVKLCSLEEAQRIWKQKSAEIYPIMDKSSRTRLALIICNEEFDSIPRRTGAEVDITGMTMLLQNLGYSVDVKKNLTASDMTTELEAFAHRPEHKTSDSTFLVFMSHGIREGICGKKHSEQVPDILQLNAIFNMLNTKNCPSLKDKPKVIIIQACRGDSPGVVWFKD
T1 sequence (P29466 317-404 limits assumed): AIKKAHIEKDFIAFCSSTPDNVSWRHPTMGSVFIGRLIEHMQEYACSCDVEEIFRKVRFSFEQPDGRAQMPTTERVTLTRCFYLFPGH
The experiment is described as follows: Caspase-1 enzyme inhibition (Ki). The format is biochemical. Here is the method: Ki values for test compounds with the various caspases were obtained by the method of Margolin et al. (J. Biol. Chem., 272 pp. 7223-7228 (1997)). Assays were performed in 10 mM Tris (Sigma Corp, St Louis Mo.) pH 7.5, 1 mM Dithiothreitol (DTT, Research Organic INC, Cleveland, Ohio) and 0.1% CHAPS (Pierce, Rockford Ill.) at 37° C. For caspase-3, a solution of 8% glycerol was added to the assay buffer to improve enzyme stability. A 65 μL aliquot of the assay buffer and 5 μL aliquot of the appropriate dilutions of inhibitor in DMSO where pipetted into a 96 well plate, treated with 10 μL of caspase, then diluted in assay buffer (0.5-40 nM active protein by active site titration). A control containing DMSO but no compound was included for each determination. The plates were then incubated for 15 minutes at 37° C., before addition of the appropriate substrate (20 μL, final concentration 1-4×KM, final assay volume 100 μL) to initiate the reaction. Reaction rates were measured at 37° C. either by following the time dependant increase in absorbance at 405 nm (for the pNA substrates) or in fluorescence (Ex 390, Em 460) (for the AMC substrates). The rates obtained were plotted against inhibitor concentration and the data fit to the Morrison tight-binding equation for competitive inhibitors (Morrison, J. F., Biochem. Biophys. Acta, 185 pp. 269-286 (1969)). The substrates used for the individual assays were as follows:
Caspase-1 Suc-YVAD-pNA (Bachem, King of Prussia, Pa.) (final concentration in the assay 80 μM),

In experiment [1] the test system is Human Peripheral Blood Mononuclear Cells (PBMC), mature IL-1β. The experiment is described as follows: PBMC cell assay: IL-1β assay with human peripheral blood mononuclear cells. It counts as cell-based. To be noted: LPS-stimulated human PBMC, mature IL-1β in supernatant by ELISA. From the text: IL-1β Assay with a Mixed Population of Human Peripheral Blood Mononuclear Cells (PBMC) or Enriched Adherent Mononuclear Cells
Processing of pre-IL-1β by ICE can be measured in cell culture using a variety of cell sources. Human PBMC obtained from healthy donors provides a mixed population of lymphocyte subtypes and mononuclear cells that produce a spectrum of interleukins and cytokines in response to many classes of physiological stimulators. Adherent mononuclear cells from PBMC provides an enriched source of normal monocytes for selective studies of cytokine production by activated cells.
An initial dilution series of test compound in DMSO or ethanol is prepared, with a subsequent dilution into RPMI-10% FBS media (containing 2 mM L-glutamine, 10 mM HEPES, 50 U and 50 ug/ml pen/strep) respectively to yield drugs at 4× the final test concentration containing 0.4% DMSO or 0.4% ethanol. The final concentration of DMSO is 0.1% for all drug dilutions. A concentration titration which brackets the apparent Ki for a test compound determined in an ICE inhibition assay is generally used for the primary compound screen.
Generally 5-6 compound dilutions are tested and the cellular component of the assay is performed in duplicate, with duplicate ELISA determinations on each cell culture supernatant.
Buffy coat cells isolated from one pint human blood (yielding 40-45 ml final volume plasma plus cells) are diluted with media to 80 ml and LeukoPREP separation tubes (Becton Dickinson) are each overlaid with 10 ml of cell suspension. After 15 min centrifugation at 1500-1800×g, the plasma/media layer is aspirated and then the mononuclear cell layer is collected with a Pasteur pipette and transferred to a 15 ml conical centrifuge tube (Corning). Media is added to bring the volume to 15 ml, gently mix the cells by inversion and centrifuge at 300×g for 15 min. The PBMC pellet is resuspended in a small volume of media, the cells are counted and adjusted to 6×10^6 cells/ml.
For the cellular assay, 1.0 ml of the cell suspension is added to each well of a 24-well flat bottom tissue culture plate (Corning), 0.5 ml test compound dilution and 0.5 ml LPS solution (Sigma #L-3012; 20 ng/ml solution prepared in complete RPMI media; final LPS concentration 5 ng/ml). The 0.5 ml additions of test compound and LPS are usually sufficient to mix the contents of the wells. Three control mixtures are run per experiment, with either LPS alone, solvent vehicle control, and/or additional media to adjust the final culture volume to 2.0 ml. The cell cultures are incubated for 16-18 hr at 37° C. in the presence of 5% CO2.
At the end of the incubation period, cells are harvested and transferred to 15 ml conical centrifuge tubes. After centrifugation for 10 min at 200×g, supernatants are harvested and transferred to 1.5 ml Eppendorf tubes. It may be noted that the cell pellet may be utilized for a biochemical evaluation of pre-IL-1β and/or mature IL-1β content in cytosol extracts by Western blotting or ELISA with pre-IL-1β specific antisera.
PBMC are isolated and prepared as described above. Media (1.0 ml) is first added to wells followed by 0.5 ml of the PBMC suspension. After a one hour incubation, plates are gently shaken and nonadherent cells aspirated from each well. Wells are then gently washed three times with 1.0 ml of media and final resuspended in 1.0 ml media. The enrichment for adherent cells generally yields 2.5-3.0×10^5 cells per well. The addition of test compounds, LPS, cell incubation conditions and processing of supernatants proceeds as described above.
Quantikine kits (R&D Systems) may be used for the measurement of mature IL-1β. Assays are performed according to the manufacturer's directions. Mature IL-1β levels of about 1-3 ng/ml in both PBMC and adherent mononuclear cell positive controls are observed. […]
(An ELISA detects its analyte on a solid surface through an enzyme-linked reagent.)

The mark [2] stands for this setting: substrate Suc-YVAD-pNA 80 μM, 37° C., pH 7.5.

Like-named read-outs stand apart in the source and are kept apart here. Where a SMILES comes first, the peptide text is derived from it. [ ]: non-standard residue; d: D form. The star is where a group is joined. Tle = CC(C)(C)[C@H](N)C(=O)O; Bz = O=C(c1ccccc1)*

`COc1c(Cl)cc(C(=O)N[C@H](C(=O)N2CCC[C@H]2C(=O)N[C@H](C=O)CC(=O)O)C(C)C)cc1Cl` [Example 5al] came in with a Ki at Caspase-1 (setting [2]) of under 0.01 µM. The same compound registered an IC50 in experiment [1] of over 2 µM.
Compound `CC(C)[C@H](NC(=O)c1ccc(C(C)(C)C)cc1)C(=O)N1CCC[C@H]1C(=O)N[C@H](C=O)CC(=O)O` [Example 5am] registered a Ki on Caspase-1 (setting [2]) of under 0.01 µM. Besides, the IC50 in experiment [1] is over 2 µM.
For `CCCN(CCC)S(=O)(=O)c1ccc(C(=O)N[C@H](C(=O)N2CCC[C@H]2C(=O)N[C@H](C=O)CC(=O)O)C(C)C)cc1` [Example 5ao] the same measures were 0.01 to 1 µM and over 2 µM.
As for `CC(C)[C@H](NC(=O)c1csc(C2COc3ccccc3O2)n1)C(=O)N1CCC[C@H]1C(=O)N[C@H](C=O)CC(=O)O` (stereo partly shown) [Example 5aq], the Ki at Caspase-1 (setting [2]) lay within 0.01 to 1 µM. Also, the IC50 in experiment [1] was over 2 µM.
The compound `Cc1nn(C)c2ncc(C(=O)N[C@H](C(=O)N3CCC[C@H]3C(=O)N[C@H](C=O)CC(=O)O)C(C)C)c(SC(C)C)c12` [Example 5ar] had a Ki at Caspase-1 (setting [2]) of under 0.01 µM. The compound further returned an IC50 in experiment [1] of over 2 µM.
For `CC(C)[C@H](NC(=O)c1ccc2ncsc2c1)C(=O)N1CCC[C@H]1C(=O)N[C@H](C=O)CC(=O)O` [Example 5as] the same measures were under 0.01 µM and over 2 µM.
Turning to `CCCc1c(C(=O)N[C@H](C(=O)N2CCC[C@H]2C(=O)N[C@H](C=O)CC(=O)O)C(C)C)cnn1-c1ccc(Cl)cc1` [Example 5at], the Ki on Caspase-1 (setting [2]) lay within 0.01 to 1 µM. This compound registered an IC50 in experiment [1] of over 2 µM.
With `Cc1oc(-c2ccccc2)cc1C(=O)N[C@H](C(=O)N1CCC[C@H]1C(=O)N[C@H](C=O)CC(=O)O)C(C)C` [Example 5au], the Ki at Caspase-1 (setting [2]) lay in the range of 0.01 to 1 µM. Also, the IC50 in experiment [1] is over 2 µM.
For `CC(C)[C@H](NC(=O)c1ccc(CSc2ccccn2)o1)C(=O)N1CCC[C@H]1C(=O)N[C@H](C=O)CC(=O)O` [Example 5av] the same measures were 0.01 to 1 µM and over 2 µM.
The like results for `COc1cccc(Oc2ccc(OC)cc2C(=O)N[C@H](C(=O)N2CCC[C@H]2C(=O)N[C@H](C=O)CC(=O)O)C(C)C)c1` [Example 5aw] were, in that order, under 0.01 µM and 1 to 2 µM.
For `CC(C)[C@H](NC(=O)c1ccccc1-c1ccc(C(F)(F)F)cc1)C(=O)N1CCC[C@H]1C(=O)N[C@H](C=O)CC(=O)O` [Example 5ba] the same measures were under 0.01 µM and 1 to 2 µM.
On to `CCCc1ccc(-c2ccc(C(=O)N[C@H](C(=O)N3CCC[C@H]3C(=O)N[C@H](C=O)CC(=O)O)C(C)C)cc2)cc1` [Example 5bd], for which, at Caspase-1 (setting [2]), the Ki is under 0.01 µM. In experiment [1], this compound registered an IC50 of 1 to 2 µM.
At Caspase-1 (setting [2]), `Cc1ccc2ccccc2c1C(=O)N[C@H](C(=O)N1CCC[C@H]1C(=O)N[C@H](C=O)CC(=O)O)C(C)C` [Example 5g] returned a Ki of 0.01 to 1 µM. The compound also had an IC50 in experiment [1] of 1 to 2 µM.
Take `CC(C)Cc1ccc(C(C)C(=O)N[C@H](C(=O)N2CCC[C@H]2C(=O)N[C@H](C=O)CC(=O)O)C(C)C)cc1` (stereo partly shown) [Example 5v]: the Ki at Caspase-1 and at Caspase-1 (setting [2]) was 0.01 to 1 µM in each case. The same compound yielded an IC50 in experiment [1] of over 2 µM.
`COc1c(Cl)cc(C(=O)N[C@H](C(=O)N2CCNC[C@H]2C(=O)N[C@H](C=O)CC(=O)O)C(C)C)cc1Cl` [Example 15d] had a Ki at Caspase-1 (setting [2]) of 0.01 to 1 µM. Also, the IC50 in experiment [1] is 1 to 2 µM.
For `CC(C)[C@H](NC(=O)c1ccc(N)c(Cl)c1)C(=O)N1CCNC[C@H]1C(=O)N[C@H](C=O)CC(=O)O` [Example 15e] the same measures were 0.01 to 1 µM and over 2 µM.
For `CC(C)[C@H](NC(=O)c1nccc2ccccc12)C(=O)N1CCNC[C@H]1C(=O)N[C@H](C=O)CC(=O)O` [Example 15f] the same measures were 0.01 to 1 µM and over 2 µM.
For the compound `C[C@H](NC(=O)c1nccc2ccccc12)C(=O)N1CCNC[C@H]1C(=O)N[C@H](C=O)CC(=O)O` [Example 16a], the Ki at Caspase-1 (setting [2]) was 0.01 to 1 µM. In experiment [1], the IC50 is under 0.5 µM.
For `CC(C)[C@H](NC(=O)c1nccc2ccccc12)C(=O)N1CCN(C)C[C@H]1C(=O)N[C@H](C=O)CC(=O)O` [Example 17b] the same measures were 0.01 to 1 µM and 1 to 2 µM.
`COc1c(Cl)cc(C(=O)N[C@H](C(=O)N2CCN(C(C)=O)C[C@H]2C(=O)N[C@H](C=O)CC(=O)O)C(C)C)cc1Cl` [Example 17c] had a Ki on Caspase-1 (setting [2]) of under 0.01 µM. This compound yielded an IC50 in experiment [1] of over 2 µM.
For `CC(=O)N1CCN(C(=O)[C@@H](NC(=O)c2ccc(N)c(Cl)c2)C(C)C)[C@H](C(=O)N[C@H](C=O)CC(=O)O)C1` [Example 17d] the same measures were 0.01 to 1 µM and over 2 µM.
For `CC(=O)N1CCN(C(=O)[C@@H](NC(=O)c2nccc3ccccc23)C(C)C)[C@H](C(=O)N[C@H](C=O)CC(=O)O)C1` [Example 17e] the same measures were 0.01 to 1 µM and 0.5 to 1 µM.
`CS(=O)(=O)CC[C@H](NC(=O)c1ccc(N)c(Cl)c1)C(=O)N1CCC[C@H]1C(=O)N[C@H](C=O)CC(=O)O` [Example 20j] showed an inhibition constant (Ki) at Caspase-1 (setting [2]) of 0.01 to 1 µM. The IC50 in experiment [1] was over 2 µM.
The like results for `CC(C)[C@H](N)C(=O)N1CC(c2ccccc2)[C@H]1C(=O)N[C@H](C=O)CC(=O)O` (stereo partly shown) [Example 24b] were, in that order, over 1 µM and over 2 µM.
As for `CC(C)[C@H](NC(=O)c1ccccc1)C(=O)N1CC[C@H](C)[C@H]1C(=O)N[C@H](C=O)CC(=O)O` [Example 26a], at Caspase-1 (setting [2]), the Ki is under 0.01 µM. The IC50 in experiment [1] lay in the range of 1 to 2 µM.
The like results for `Cc1cc(C(=O)N[C@H](C(=O)N2CC[C@H](C)[C@H]2C(=O)N[C@H](C=O)CC(=O)O)C(C)C)cc(C)c1O` [Example 26b] were, in that order, under 0.01 µM and 0.5 to 1 µM.
The like results for `C[C@H](NC(=O)[C@@H](NC(=O)c1ccccc1)C(C)(C)C)C(=O)N[C@H](C=O)CC(=O)O` [Example 29m] (Bz-[Tle]-Ala-Asp-aldehyde) were, in that order, under 0.01 µM and 0.5 to 1 µM.

Usually Ki stands for the dissociation constant of the complex between target and ligand, obtained from inhibition or displacement. A high value points to lower affinity. The term IC50 denotes the concentration at which inhibition is half-maximal. A lower IC50 goes with higher potency.

The record behind these values is patent US20030232986A1, “Inhibitors of caspases” (Vertex Pharmaceuticals Incorporated, priority 1998, published 2003).
